According to ChEMBL document CHEMBL1201862, “PubChem BioAssay data set” (2004):
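48-hour exposure; five concentrations; linearly interpolated endpoints. At the GI50, growth is halved.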 The source made the active and inactive calls. Rule as the data show it: active = GI50 up to about 1.1 µM and inactive = higher.

Tests used:
Experiment in all cases: DTP human tumour cell line panel, 48 h
SF-268 = system: SF-268
HL-60 = system: HL-60
KM12 = system: KM12
HT-29 = system: HT-29
HOP-62 = system: HOP-62
NCI-H23 = system: NCI-H23
MOLT-4 = system: MOLT-4
HCC 2998 = system: HCC 2998
OVCAR-5 = system: OVCAR-5
CAKI-1 = system: CAKI-1
A498 = system: A498
RXF 393 = system: RXF 393
HCT-116 = system: HCT-116
ACHN = system: ACHN
K562 = system: K562
OVCAR-8 = system: OVCAR-8
SK-MEL-28 = system: SK-MEL-28
OVCAR-4 = system: OVCAR-4
HCT-15 = system: HCT-15
T47D = system: T47D
RPMI-8226 = system: RPMI-8226
Hs-578T = system: Hs-578T
MDA-MB-435 = system: MDA-MB-435
SK-OV-3 = system: SK-OV-3
LOX IMVI = system: LOX IMVI
BT-549 = system: BT-549
UO-31 = system: UO-31
SK-MEL-5 = system: SK-MEL-5
Malme-3M = system: Malme-3M
PC-3 = system: PC-3
NCI-H522 = system: NCI-H522
SNB-19 = system: SNB-19
MCF7 = system: MCF7
IGROV-1 = system: IGROV-1
SF-295 = system: SF-295
OVCAR-3 = system: OVCAR-3
TK-10 = system: TK-10
SW-620 = system: SW-620
HOP-92 = system: HOP-92
A549 = system: A549
UACC-62 = system: UACC-62
SR = system: SR
U-251 = system: U-251
M14 = system: M14
SN12C = system: SN12C
786-0 = system: 786-0
NCI-H460 = system: NCI-H460
CCRF-CEM = system: CCRF-CEM
NCI-H226 = system: NCI-H226
DU-145 = system: DU-145
EKVX = system: EKVX
MDA-MB-231 = system: MDA-MB-231
NCI/ADR-RES = system: NCI/ADR-RES
COLO 205 = system: COLO 205
UACC-257 = system: UACC-257
SF-539 = system: SF-539
SNB-75 = system: SNB-75
SK-MEL-2 = system: SK-MEL-2

Structure (SMILES): CC(C)(C)OC(=O)NCC(CNC(=O)OC(C)(C)C)C(N)=O
- GI50 (SF-268): > 100 µM (inactive)
- GI50 (HL-60): > 100 µM (inactive)
- GI50 (KM12): > 100 µM (inactive)
- GI50 (HT-29): > 100 µM (inactive)
- GI50 (HOP-62): > 100 µM (inactive)
- GI50 (NCI-H23): > 100 µM (inactive)
- GI50 (MOLT-4): > 100 µM (inactive)
- GI50 (HCC 2998): > 100 µM (inactive)
- GI50 (OVCAR-5): > 100 µM (inactive)
- GI50 (CAKI-1): > 100 µM (inactive)
- GI50 (A498): > 100 µM (inactive)
- GI50 (RXF 393): > 100 µM (inactive)
- GI50 (HCT-116): > 100 µM (inactive)
- GI50 (ACHN): > 100 µM (inactive)
- GI50 (K562): > 100 µM (inactive)
- GI50 (OVCAR-8): > 100 µM (inactive)
- GI50 (SK-MEL-28): > 100 µM (inactive)
- GI50 (OVCAR-4): > 100 µM (inactive)
- GI50 (HCT-15): > 100 µM
- GI50 (T47D): > 100 µM (inactive)
- GI50 (RPMI-8226): > 100 µM (inactive)
- GI50 (Hs-578T): > 100 µM (inactive)
- GI50 (MDA-MB-435): > 100 µM (inactive)
- GI50 (SK-OV-3): > 100 µM (inactive)
- GI50 (LOX IMVI): > 100 µM (inactive)
- GI50 (BT-549): > 100 µM (inactive)
- GI50 (UO-31): > 100 µM (inactive)
- GI50 (SK-MEL-5): > 100 µM (inactive)
- GI50 (Malme-3M): > 100 µM (inactive)
- GI50 (PC-3): > 100 µM (inactive)
- GI50 (NCI-H522): > 100 µM (inactive)
- GI50 (SNB-19): > 100 µM (inactive)
- GI50 (MCF7): > 100 µM (inactive)
- GI50 (IGROV-1): > 100 µM (inactive)
- GI50 (SF-295): > 100 µM (inactive)
- GI50 (OVCAR-3): > 100 µM (inactive)
- GI50 (TK-10): > 100 µM (inactive)
- GI50 (SW-620): > 100 µM (inactive)
- GI50 (HOP-92): > 100 µM (inactive)
- GI50 (A549): > 100 µM (inactive)
- GI50 (UACC-62): > 100 µM (inactive)
- GI50 (SR): > 100 µM (inactive)
- GI50 (U-251): > 100 µM (inactive)
- GI50 (M14): > 100 µM (inactive)
- GI50 (SN12C): > 100 µM (inactive)
- GI50 (786-0): > 100 µM (inactive)
- GI50 (NCI-H460): > 100 µM (inactive)
- GI50 (CCRF-CEM): > 100 µM (inactive)
- GI50 (NCI-H226): > 100 µM (inactive)
- GI50 (DU-145): > 100 µM (inactive)
- GI50 (EKVX): > 100 µM (inactive)
- GI50 (MDA-MB-231): > 100 µM (inactive)
- GI50 (NCI/ADR-RES): > 100 µM (inactive)
- GI50 (COLO 205): > 100 µM (inactive)
- GI50 (UACC-257): > 100 µM (inactive)
- GI50 (SF-539): > 100 µM (inactive)

Structure (SMILES): CN(C)CCn1c(CO)nc2c1c(=O)n(C)c(=O)n2C
- GI50 (SF-268): > 100 µM (inactive)
- GI50 (HL-60): > 100 µM (inactive)
- GI50 (KM12): > 100 µM (inactive)
- GI50 (HT-29): > 100 µM (inactive)
- GI50 (HOP-62): > 100 µM (inactive)
- GI50 (NCI-H23): > 100 µM (inactive)
- GI50 (HCC 2998): > 100 µM (inactive)
- GI50 (OVCAR-5): > 100 µM (inactive)
- GI50 (CAKI-1): > 100 µM (inactive)
- GI50 (A498): > 100 µM (inactive)
- GI50 (RXF 393): > 100 µM (inactive)
- GI50 (HCT-116): > 100 µM (inactive)
- GI50 (ACHN): > 100 µM (inactive)
- GI50 (K562): > 100 µM (inactive)
- GI50 (OVCAR-8): > 100 µM (inactive)
- GI50 (SK-MEL-28): > 100 µM (inactive)
- GI50 (SNB-75): > 100 µM (inactive)
- GI50 (OVCAR-4): > 100 µM (inactive)
- GI50 (HCT-15): > 100 µM
- GI50 (T47D): > 100 µM (inactive)
- GI50 (RPMI-8226): > 100 µM (inactive)
- GI50 (Hs-578T): > 100 µM (inactive)
- GI50 (MDA-MB-435): > 100 µM (inactive)
- GI50 (SK-OV-3): > 100 µM (inactive)
- GI50 (SK-MEL-2): > 100 µM (inactive)
- GI50 (LOX IMVI): > 100 µM (inactive)
- GI50 (BT-549): > 100 µM (inactive)
- GI50 (UO-31): > 100 µM (inactive)
- GI50 (SK-MEL-5): > 100 µM (inactive)
- GI50 (Malme-3M): > 100 µM (inactive)
- GI50 (PC-3): > 100 µM (inactive)
- GI50 (NCI-H522): > 100 µM (inactive)
- GI50 (SNB-19): > 100 µM (inactive)
- GI50 (MCF7): > 100 µM (inactive)
- GI50 (IGROV-1): > 100 µM (inactive)
- GI50 (SF-295): > 100 µM (inactive)
- GI50 (OVCAR-3): > 100 µM (inactive)
- GI50 (TK-10): > 100 µM (inactive)
- GI50 (SW-620): > 100 µM (inactive)
- GI50 (A549): > 100 µM (inactive)
- GI50 (UACC-62): > 100 µM (inactive)
- GI50 (SR): > 100 µM (inactive)
- GI50 (U-251): > 100 µM (inactive)
- GI50 (M14): > 100 µM (inactive)
- GI50 (SN12C): > 100 µM (inactive)
- GI50 (786-0): > 100 µM (inactive)
- GI50 (NCI-H460): > 100 µM (inactive)
- GI50 (CCRF-CEM): > 100 µM (inactive)
- GI50 (NCI-H226): > 100 µM (inactive)
- GI50 (DU-145): > 100 µM (inactive)
- GI50 (EKVX): > 100 µM (inactive)
- GI50 (MDA-MB-231): > 100 µM (inactive)
- GI50 (NCI/ADR-RES): > 100 µM (inactive)
- GI50 (COLO 205): > 100 µM (inactive)
- GI50 (UACC-257): > 100 µM (inactive)
- GI50 (SF-539): > 100 µM (inactive)
